Test results as given in patent publication US20240101548A1, “HYDROXAMATE COMPOUND, PREPARATION METHOD THEREFOR AND APPLICATION THEREOF” (SHENZHEN CHIPSCREEN BIOSCIENCES CO., LTD., priority 2020, published 2024).
pIC50: −log10 of the molar value.

Columns and labels:
[1] = test system: IL-2-induced JAK1/JAK3 signal pathway; assay: IL-2-induced proliferation of KHYG-1 cells (JAK1/JAK3 signal); assay type: cell-based, human; settings: Homo sapiens; KHYG-1 cell proliferation, IL-2 10 ng/mL, 72 hours; read-out: Inhibition activity IC50 on IL-2-induced JAK1/JAK3 signal pathway
Text: The main physiological function of cytokine IL-2 is to stimulate and maintain the proliferation and differentiation of T cells. Generally, IL-2 dependent T cells cannot survive in in-vitro culture for a long time, but the addition of IL-2 can make them continue to proliferate. The signal pathway induced by IL-2 coupling with its receptor is mediated by JAK1/JAK3-STAT5, so the inhibitor of JAK1 and/or JAK3 can inhibit the proliferation of IL-2 dependent cells.
Human natural killer cell lymphoma cell line KHYG-1 was commercially available from Health Science Research Resources Bank (HSRRB), and relevant culture conditions referred to those from HSRRB.
The inhibition rate of the tested compound on IL-2-induced cell proliferation was calculated using Microsoft Excel.
After culture at 37° C. and 5% CO2 for 72 hours, alamarBlue™ Cell Viability Reagent was added to each well following the instructions.
(§1) The well in which neither compound nor cytokine was added was designated as 0% control well, and the fluorescence value in the wells in which the final concentration of compound was 0 was designated as 100% control. The inhibition activity C50 of the tested compound on JAK1/JAK3 could be calculated from the inhibition rate of the tested compound on IL-2-induced cell proliferation at different doses.

[2] = test system: EPO-induced JAK2 signal pathway; assay: EPO-induced proliferation of UT-7 cells (JAK2 signal); assay type: cell-based, human; settings: Homo sapiens, UT7; UT-7 cell proliferation, EPO 10 ng/mL, 72 hours; read-out: Inhibition activity IC50 on EPO-induced JAK2 signal pathway
Experimental: The cytokine EPO, i.e. erythropoietin, can promote the proliferation and division of erythroid progenitor cells, and the signal pathway induced by EPO coupling with its receptor is mediated by JAK2-STAT5.
Human promegakaryocytic leukemia cell line UT-7 was commercially available from Cell Resource Center, Institute of Basic Medicine, Chinese Academy of Medical Sciences. The culture medium was RPIM1640 containing 10% FBS, and EPO was added for a final concentration of 10 ng/mL.
The inhibition rate of the tested compound on EPO-induced cell proliferation was calculated using Microsoft Excel.
UT-7 cell line was inoculated in 96-well plate with flat bottom at 15000 cells per well, each well was added with 10 ng/mL of human recombinant EPO (Human EPO PEPROTECH 100-64-10UG), along with tested compound respectively for a final concentration of 0, 100, 1000 or 10000 nM. After culture at 37° C. and 5% CO2 for 72 hours, alamarBlue™ Cell Viability Reagent was added to each well following the instructions. After incubation at 37° C. for color reaction, the fluorescence value at Ex530/Em590 was detected using Tecan Spark™ 10M multimode microplate reader.
as §1, with “[…]” for “0%”, “100” for “100%”, “[…] ofthe” for “C50 of the”, “JAK2” for “JAK1/JAK3”, “ofthe” for “of the”, “EPO-induced” for “IL-2-induced”

SMILES	pIC50 [1]	pIC50 [2]
CONC(=O)c1cnc(NC(=O)C2CC2)cc1Nc1cccc(Cl)c1N(C)S(C)(=O)=O [Example 75, 4-((3-chloro-2-(N-methylmethanesulfonamido)phenyl)amino)-6-(cyclopropylcarboxamido)-N-methoxy nicotinamide]	< 5.00	< 5.00
CONC(=O)c1cnc(NC(=O)[C@H]2CC2(C)C)cc1Nc1ccc(C2CC2)cc1N(C)S(C)(=O)=O [Example 94, (S)-4-((4-cyclopropyl-2-(N-methylmethanesulfonamido)phenyl)amino)-6-(2,2-dimethylcyclopropyl-1-carboxamido)-N-methoxy nicotinamide]	< 5.00	< 5.00
CCONC(=O)c1cnc(Nc2cc(C)nc(C)n2)cc1Nc1cc(Cl)c(C2CC2)cc1N(C)S(C)(=O)=O [Example 149]	< 5.00	< 5.00
CONC(=O)c1cnc(Nc2ccc(F)cn2)cc1Nc1cccc(C(F)(F)F)c1N(C)S(C)(=O)=O [Example 84, 6-((5-fluoropyridin-2-yl)amino)-N-methoxy-4-((2-(N-methylmethanesulfonamido)-3-(trifluoromethyl)phenyl)amino)nicotinamide]	< 5.00	< 5.00
CCONC(=O)c1cnc(NC(=O)C2CC2)cc1Nc1cc(Cl)c(C2CC2)cc1N(C)S(C)(=O)=O [Example 150, 4-((5-chloro-4-cyclopropyl-2-(N-methylmethanesulfonamido)phenyl)amino)-6-(cyclopropylcarboxamido)-N-ethoxy nicotinamide]	< 5.00	< 5.00
CCONC(=O)c1cnc(Nc2ccnn2C)cc1Nc1ccc(N2CCOCC2)cc1N(C)S(C)(=O)=O [Example 135]	< 5.00	< 5.00
CONC(=O)c1cnc(Nc2cccc(F)n2)cc1Nc1ccc(C(F)(F)F)cc1N(C)S(C)(=O)=O [Example 11, 6-((6-fluoropyridin-2-yl)amino)-N-methoxy-4-((2-(N-methylmethanesulfonamido)-4-(trifluoromethyl)phenyl)amino)nicotinamide]	< 5.00	< 5.00
CCONC(=O)c1cnc(Nc2nc(C)cc(C)n2)cc1Nc1ccc(C)cc1N(C)S(=O)(=O)C1CC1 [Example 66, 6-((4,6-dimethylpyrimidin-2-yl)amino)-N-ethoxy-4-((4-methyl-2-(N-methylcyclopropylsulfonamido)phenyl)amino)nicotinamide]	< 5.00	< 5.00
CONC(=O)c1cnc(NC(=O)C2CC2)cc1Nc1cccc(-c2cnn(C)c2)c1OC(F)F [Example 54, 6-(cyclopropylcarboxamido)-4-((2-(difluoromethoxy)-3-(1-methyl-1H-pyrazol-4-yl)phenyl)amino)-N-methoxy nicotinamide]	< 5.00	< 5.00
CCONC(=O)c1cnc(Nc2ccnn2C)cc1Nc1cc(F)c(C2CC2)cc1N(C)S(C)(=O)=O [Example 168, 4-((4-cyclopropyl-5-fluoro-2-(N-methylmethanesulfonamido)phenyl)amino)-N-ethoxy-6-((1-methyl-1H-pyrazol-5-yl)amino)nicotinamide]	< 5.00	< 5.00
CONC(=O)c1cnc(NC(=O)C2CC2)cc1Nc1cnccc1N(C)S(C)(=O)=O [Example 56, 6-(cyclopropylcarboxamido)-N-methoxy-4-((4-(N-methylmethanesulfonamido)pyridin-3-yl)amino)nicotinamide]	< 5.00	< 5.00
CONC(=O)c1cnc(NC(=O)C2CC2)cc1Nc1ccc(OC)cc1N(C)S(C)(=O)=O [Example 6, 6-(cyclopropylcarboxamido)-N-methoxy-4-((4-methoxy-2-(N-methylmethanesulfonamido)phenyl)amino)nicotinamide]	< 5.00	< 5.00
CONC(=O)c1cnc(Nc2cccnc2OC)cc1Nc1ccc(OC)nc1N(C)S(C)(=O)=O [Example 9, N-methoxy-4-((6-methoxy-2-(N-methylmethanesulfonamido)pyridin-3-yl)amino)-6-((2-methoxypyridin-3-yl)amino)nicotinamide]	< 5.00	< 5.00
CCONC(=O)c1cnc(Nc2cc(C)nc(C)n2)cc1Nc1cc(C)c(C2CC2)cc1N(C)S(C)(=O)=O [Example 121]	< 5.00	< 5.00
CONC(=O)c1cnc(NC(=O)C2CC2)cc1Nc1cccc(C#N)c1OC [Example 31, 4-((3-cyano-2-methoxyphenyl)amino)-6-(cyclopropylcarboxamido)-N-methoxy nicotinamide]	< 5.00	< 5.00
CONC(=O)c1cnc(Nc2ccc(F)cc2)cc1Nc1ccc(C2CC2)cc1N(C)S(C)(=O)=O [Example 15, 4-((4-cyclopropyl-2-(N-methylmethanesulfonamido)phenyl)amino)-6-((4-fluorophenyl)amino)-N-methoxy nicotinamide]	< 5.00	< 5.00
CC(C)ONC(=O)c1cnc(Nc2cccc(F)n2)cc1Nc1ccc(C2CC2)cc1N(C)S(C)(=O)=O [Example 23, 4-((4-cyclopropyl-2-(N-methylmethanesulfonamido)phenyl)amino)-6-((6-fluoropyridin-2-yl)amino)-N-isopropoxy nicotinamide]	< 5.00	< 5.00
CCONC(=O)c1cnc(NC(=O)C2CC2)cc1Nc1cccc(-c2cnn(C)c2)c1OC [Example 26, 6-(cyclopropylcarboxamido)-N-ethoxy-4-((2-methoxy-3-(1-methyl-1H-pyrazol-4-yl)phenyl)amino)nicotinamide]	< 5.00	< 5.00
CONC(=O)c1cnc(Nc2cccc(F)n2)cc1Nc1ccccc1OC1COC1 [Example 40]	< 5.00	< 5.00
CONC(=O)c1cnc(Nc2ccc(F)cn2)cc1Nc1cccc(-c2cnn(C)c2)c1C#N [Example 49, 4-((2-cyano-3-(1-methyl-1H-pyrazol-4-yl)phenyl)amino)-6-((5-fluoropyridin-2-yl)amino)-N-methoxy nicotinamide]	< 5.00	< 5.00
CCONC(=O)c1cnc(Nc2cccc(F)n2)cc1Nc1ccccc1NS(C)(=O)=O [Example 117, N-ethoxy-6-((6-fluoropyridin-2-yl)amino)-4-((2-(methanesulfonamido)phenyl)amino)nicotinamide]	< 5.00	< 5.00
CCONC(=O)c1cnc(Nc2nc(C)cs2)cc1Nc1ccc(C)cc1N(C)S(C)(=O)=O [Example 165, N-ethoxy-4-((4-methyl-2-(N-methylmethanesulfonamido)phenyl)amino)-6-((4-methylthiazol-2-yl)amino)nicotinamide]	< 5.00	< 5.00
CN(c1ccccc1Nc1cc(NC(=O)C2CC2)ncc1C(=O)NOC(C)(C)C)S(C)(=O)=O [Example 91, N-(t-butoxy)-6-(cyclopropylcarboxamido)-4-((2-(N-methylmethanesulfonamido)phenyl)amino)nicotinamide]	< 5.00	< 5.00
CONC(=O)c1cnc(Nc2cccc(F)n2)cc1Nc1cccc(-c2cnn(C)c2)c1N(C)S(C)(=O)=O [Example 88, 6-((6-fluoropyridin-2-yl)amino)-N-methoxy-4-((3-(1-methyl-1H-pyrazol-4-yl)-2-(N-methylmethanesulfonamido)phenyl)amino)nicotinamide]	< 5.00	< 5.00
CCONC(=O)c1cnc(Nc2ncc(F)cc2F)cc1Nc1cc(F)c(C(C)C)cc1N(C)S(C)(=O)=O [Example 228, 6-((3,5-difluoropyridin-2-yl)amino)-N-ethoxy-4-((5-fluoro-4-isopropyl-2-(N-methylmethanesulfonamido)phenyl)amino)nicotinamide]	< 5.00	< 5.00
CONC(=O)c1cnc(Nc2ccc(F)cc2)cc1Nc1cccnc1N(C)S(C)(=O)=O [Example 17, 6-((4-fluorophenyl)amino)-N-methoxy-4-((2-(N-methylmethanesulfonamido)pyridin-3-yl)amino)nicotinamide]	< 5.00	< 5.00
CCONC(=O)c1cnc(NC(=O)C2CC2)cc1Nc1cc(C)c(C2CC2)cc1N(C)S(C)(=O)=O [Example 120, 6-(cyclopropylcarboxamido)-4-((4-cyclopropyl-5-methyl-2-(N-methylmethanesulfonamido)phenyl)amino)-N-ethoxy nicotinamide]	< 5.00	< 5.00
